In ChEMBL document CHEMBL1150403, “Synthesis of Hsp90 inhibitor dimers as potential antitumor agents” (Bioorg Med Chem, 2008):

Tests used:
Assay type in all cases: functional, cell-based
[1] = system: SK-BR-3; test: Cytotoxicity against human SKBR3 cells after 24 hrs; settings: SK-BR-3, 24 h
[2] = system: MCF7; test: Cytotoxicity against human MCF7 cells after 24 hrs; settings: MCF7, 24 h
[3] = system: MCF7; test: Induction of Her2 degradation in human MCF7 cells by Western blotting analysis

SMILES | IC50 [1] | IC50 [2] | Activity [3]
COc1cc(Cc2nc3c(N)ncnc3n2CCCC#CCNCCCCCCCCCCCCN)cc(OC)c1OC | 13100 nM | 55100 nM | –
CO[C@H]1/C=C/C=C(\C)C(=O)NC2=CC(=O)C(NCCCCNC3=C4C[C@@H](C)C[C@H](OC)[C@H](O)[C@@H](C)/C=C(\C)[C@H](OC(N)=O)[C@@H](OC)/C=C/C=C(\C)C(=O)NC(=CC3=O)C4=O)=C(C[C@@H](C)C[C@H](OC)[C@H](O)[C@@H](C)/C=C(\C)[C@@H]1OC(N)=O)C2=O | 258 nM | 1110 nM | –
COc1cc(Cc2nc3c(N)ncnc3n2CCCC#CCNCCCCCCCCCCCCNCC#CCCCn2c(Cc3cc(OC)c(OC)c(OC)c3)nc3c(N)ncnc32)cc(OC)c1OC | 5730 nM | 4680 nM | Dose-dependent effect
C[C@@H]1C[C@H]2O[C@@H]2/C=C\C=C\C(=O)Cc2c(Cl)c(O)cc(O)c2C(=O)O1 [RADICICOL] | 3.64 nM | 89.2 nM | –
C#CCCCn1c(Cc2cc(OC)c(OC)c(OC)c2)nc2c(N)ncnc21 | 31800 nM | 45900 nM | –
COc1cc(Cc2nc3c(N)ncnc3n2CCCC#CCNCCCCNCC#CCCCn2c(Cc3cc(OC)c(OC)c(OC)c3)nc3c(N)ncnc32)cc(OC)c1OC | > 100000 nM | > 100000 nM | –
COc1cc(Cc2nc3c(N)ncnc3n2CCCC#CCNCCCCCCCCCCCCCCCCCCCCNCC#CCCCn2c(Cc3cc(OC)c(OC)c(OC)c3)nc3c(N)ncnc32)cc(OC)c1OC | 1310 nM | 1460 nM | –
COc1cc(Cc2nc3c(N)ncnc3n2CCCC#CCNCCCCCCCCNCC#CCCCn2c(Cc3cc(OC)c(OC)c(OC)c3)nc3c(N)ncnc32)cc(OC)c1OC | 85700 nM | 30600 nM | –
CO[C@H]1/C=C/C=C(\C)C(=O)NC2=CC(=O)C(NCCCCCCCCCCCCNC3=C4C[C@@H](C)C[C@H](OC)[C@H](O)[C@@H](C)/C=C(\C)[C@H](OC(N)=O)[C@@H](OC)/C=C/C=C(\C)C(=O)NC(=CC3=O)C4=O)=C(C[C@@H](C)C[C@H](OC)[C@H](O)[C@@H](C)/C=C(\C)[C@@H]1OC(N)=O)C2=O | 296 nM | 628 nM | –
CO[C@H]1/C=C/C=C(\C)C(=O)NC2=CC(=O)C(NCCCCCCCCCCCCCCCCNC3=C4C[C@@H](C)C[C@H](OC)[C@H](O)[C@@H](C)/C=C(\C)[C@H](OC(N)=O)[C@@H](OC)/C=C/C=C(\C)C(=O)NC(=CC3=O)C4=O)=C(C[C@@H](C)C[C@H](OC)[C@H](O)[C@@H](C)/C=C(\C)[C@@H]1OC(N)=O)C2=O | 150 nM | 431 nM | –
COc1cc(Cc2nc3c(N)ncnc3n2CCCC#CCO)cc(OC)c1OC | > 100000 nM | > 100000 nM | –
COc1cc(Cc2nc3c(N)ncnc3n2CCCC#CCNCCCCCCCCCCCCCCCCNCC#CCCCn2c(Cc3cc(OC)c(OC)c(OC)c3)nc3c(N)ncnc32)cc(OC)c1OC | 3180 nM | 1570 nM | –
